Measurements from ChEMBL document CHEMBL1201862, “PubChem BioAssay data set” (2004).
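Five compound concentrations were applied to cells in 96-well plates for 48 hours; endpoints were derived by simple linear interpolation of the resulting dose-response curve. Abbreviation: GI50, concentration required for 50% inhibition of growth.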 Calls of active or inactive are those of the source. No stated cut-off is given here; in the data, active = GI50 up to about 1.1 µM and inactive = higher.

How the values were obtained:
Test in all cases: growth of human tumour cells (NCI), 48 h
[1] = system: HCT-15
[2] = system: SK-MEL-28
[3] = system: UO-31
[4] = system: HL-60
[5] = system: HOP-62
[6] = system: K562
[7] = system: MDA-MB-231
[8] = system: RXF 393
[9] = system: HOP-92
[10] = system: RPMI-8226
[11] = system: SNB-75
[12] = system: UACC-62
[13] = system: NCI-H460
[14] = system: BT-549
[15] = system: T47D
[16] = system: COLO 205
[17] = system: SW-620
[18] = system: KM-20L2
[19] = system: DMS-114
[20] = system: M19-MEL

In the case of `COC(=O)[C@@H]1C[C@@]2(C3C=CN(C(=O)C(F)(F)F)C=C3)c3ccccc3N(C(=O)C(F)(F)F)[C@H]2N1C(=O)OC`, the GI50 [1] is reported as 88.1 µM, the GI50 [2] is reported as 39.1 µM (inactive) and the GI50 [3] is reported as > 100 µM (inactive). For the same compound, the GI50 [4] was 30.9 µM (inactive), the GI50 [5] was 49.5 µM (inactive) and the GI50 [6] was 47.8 µM (inactive). For the same compound, the GI50 [7] was > 100 µM (inactive), the GI50 [8] was 24.5 µM (inactive) and the GI50 [9] was 34.1 µM (inactive). For the same compound, the GI50 [10] was 42.1 µM (inactive), the GI50 [11] was 20.1 µM (inactive) and the GI50 [12] was 32.1 µM (inactive). For the same compound, the GI50 [13] was > 100 µM (inactive), the GI50 [14] was 33.3 µM (inactive) and the GI50 [15] was 46.7 µM (inactive). The GI50 [16] was > 100 µM (inactive) and the GI50 [17] was 47.3 µM (inactive).
With `C[C@]12CC[C@@H]3c4ccc(OC(=O)c5ccccc5)cc4CC[C@H]3[C@@H]1CCC2OC(=O)c1cccc2c(=O)c3ccccc3[nH]c12` (stereo partly specified) the GI50 [1] was 13.1 µM, the GI50 [2] was 15.8 µM (inactive) and the GI50 [3] was 27.6 µM (inactive). For the same compound, the GI50 [4] was 18.8 µM (inactive), the GI50 [5] was 22.3 µM (inactive) and the GI50 [6] was 60 µM (inactive). The GI50 [7] was 20.8 µM (inactive), the GI50 [8] was 14.4 µM (inactive) and the GI50 [9] was 18 µM (inactive). For the same compound, the GI50 [10] was 29.9 µM (inactive), the GI50 [11] was 23 µM (inactive) and the GI50 [12] was 13.3 µM (inactive). The GI50 [13] was 17.4 µM (inactive), the GI50 [14] was 18.2 µM (inactive) and the GI50 [15] was 26.4 µM (inactive). For the same compound, the GI50 [16] was 16.9 µM (inactive) and the GI50 [17] was 12.1 µM (inactive).
In the case of `COc1nc2c(c(=O)n1C)NC(C(O)C(O)CO)C=N2` (stereo unspecified), the GI50 [1] is reported as greater than 10 µM, the GI50 [2] is reported as > 10 µM (inactive) and the GI50 [3] is reported as > 10 µM (inactive). The GI50 [4] was > 10 µM (inactive), the GI50 [5] was > 10 µM (inactive) and the GI50 [6] was > 10 µM (inactive). The GI50 [7] was > 10 µM (inactive), the GI50 [8] was > 10 µM (inactive) and the GI50 [9] was > 10 µM (inactive). The GI50 [10] was > 10 µM (inactive), the GI50 [11] was > 10 µM (inactive) and the GI50 [12] was > 10 µM (inactive). For the same compound, the GI50 [13] was > 10 µM (inactive), the GI50 [14] was > 10 µM (inactive) and the GI50 [15] was > 10 µM (inactive). For the same compound, the GI50 [16] was > 10 µM (inactive) and the GI50 [17] was > 10 µM (inactive).
For `COc1cccc(/C=N/NC(N)=O)c1O`, the GI50 [1] was greater than 100 µM, the GI50 [2] was > 100 µM (inactive) and the GI50 [3] was > 100 µM (inactive). For the same compound, the GI50 [5] was > 100 µM (inactive), the GI50 [6] was > 100 µM (inactive) and the GI50 [8] was > 100 µM (inactive). The GI50 [9] was > 100 µM (inactive), the GI50 [10] was > 100 µM (inactive) and the GI50 [11] was > 100 µM (inactive). The GI50 [12] was > 100 µM (inactive), the GI50 [13] was > 100 µM (inactive) and the GI50 [18] was > 100 µM (inactive). For the same compound, the GI50 [16] was > 100 µM (inactive) and the GI50 [17] was > 100 µM (inactive).
With `CC[N+](C)(C)c1ccc(C(=C2C=CC(=[N+](C)C)C=C2)c2ccc(N(C)C)cc2)cc1` the GI50 [1] was 22.2 µM, the GI50 [2] was 16.9 µM (inactive) and the GI50 [3] was 27.5 µM (inactive). The GI50 [4] was 2.4 µM (inactive), the GI50 [5] was 8.34 µM (inactive) and the GI50 [6] was 3.12 µM (inactive). For the same compound, the GI50 [8] was 37.3 µM (inactive), the GI50 [19] was 11 µM (inactive) and the GI50 [9] was 19.5 µM (inactive). The GI50 [10] was 2.19 µM (inactive), the GI50 [11] was 4.76 µM (inactive) and the GI50 [12] was 6.55 µM (inactive). For the same compound, the GI50 [13] was 5.74 µM (inactive), the GI50 [20] was 7.91 µM (inactive) and the GI50 [16] was 5.31 µM (inactive). For the same compound, the GI50 [17] was 4.41 µM (inactive).
`CN(CCCN1CCCC1)CCCN(C)C(=O)Cc1ccc(Cl)c(Cl)c1` was tested, and the GI50 [1] was 26.1 µM, the GI50 [2] was 1.99 µM (inactive) and the GI50 [3] was 4.69 µM (inactive). For the same compound, the GI50 [4] was 15.7 µM (inactive), the GI50 [5] was 19.2 µM (inactive) and the GI50 [6] was 5.75 µM (inactive). For the same compound, the GI50 [7] was 12.6 µM (inactive), the GI50 [8] was 12.2 µM (inactive) and the GI50 [9] was 8.63 µM (inactive). The GI50 [10] was 4.61 µM (inactive), the GI50 [11] was 18.5 µM (inactive) and the GI50 [12] was 2.36 µM (inactive). For the same compound, the GI50 [13] was 16.3 µM (inactive), the GI50 [14] was 18.6 µM (inactive) and the GI50 [15] was 21.2 µM (inactive). For the same compound, the GI50 [16] was 17.6 µM (inactive) and the GI50 [17] was 18.4 µM (inactive).
With `CN(C)c1ccc(/C=C(\NC(=O)c2ccccc2)C(=O)Nc2cccc(C(=O)NCCCO)c2)cc1` the GI50 [1] was greater than 100 µM, the GI50 [2] was > 100 µM (inactive) and the GI50 [3] was > 100 µM (inactive). The GI50 [4] was > 100 µM (inactive), the GI50 [5] was > 100 µM (inactive) and the GI50 [6] was > 100 µM (inactive). For the same compound, the GI50 [7] was > 100 µM (inactive), the GI50 [8] was > 100 µM (inactive) and the GI50 [9] was > 100 µM (inactive). For the same compound, the GI50 [10] was > 100 µM (inactive), the GI50 [11] was > 100 µM (inactive) and the GI50 [12] was > 100 µM (inactive). The GI50 [13] was > 100 µM (inactive), the GI50 [14] was > 100 µM (inactive) and the GI50 [15] was > 100 µM (inactive). For the same compound, the GI50 [16] was > 100 µM (inactive) and the GI50 [17] was > 100 µM (inactive).
In the case of `NC(=O)/C=C/C(=O)O`, the GI50 [1] is reported as greater than 5000 µM, the GI50 [2] is reported as > 5000 µM (inactive) and the GI50 [3] is reported as > 5000 µM (inactive). The GI50 [4] was > 5000 µM (inactive), the GI50 [5] was > 5000 µM (inactive) and the GI50 [6] was > 5000 µM (inactive). For the same compound, the GI50 [8] was > 5000 µM (inactive), the GI50 [19] was > 5000 µM (inactive) and the GI50 [9] was > 5000 µM (inactive). For the same compound, the GI50 [10] was > 5000 µM (inactive), the GI50 [11] was > 5000 µM (inactive) and the GI50 [12] was > 5000 µM (inactive). For the same compound, the GI50 [13] was > 5000 µM (inactive), the GI50 [20] was > 5000 µM (inactive) and the GI50 [16] was > 5000 µM (inactive). For the same compound, the GI50 [17] was > 5000 µM (inactive).
